In US20230357179A1, “RAF KINASE INHIBITORS AND METHODS OF USE THEREOF” (Deciphera Pharmaceuticals, LLC, priority 2021, published 2023) one finds IC50 data, which are given here for 13 compounds.

Assay [1] concerns the target T1, A-Raf kinase (Homo sapiens, UniProt P10398, Y301D/Y302D).
T1 construct: purchased Sigma
Briefly: Biochemical assay for A-Raf.1 (coupled pyruvate kinase/lactate dehydrogenase). The note with it: read-out: ARAF.1 IC50. As for the experimental part: Biochemical assay for A-Raf.1
(§1) Activity of A-Raf kinase (SEQ. ID NO. 1) was determined spectroscopically using a coupled pyruvate kinase/lactate dehydrogenase assay that continuously monitors the ATP hydrolysis-dependent oxidation of NADH (e.g., Schindler et al., Science, 2000, 289, 1938-1942). Assays were conducted in 384-well plates (100 μL final volume) using 5.55 nM A-Raf (Sigma), 1.5 units pyruvate kinase, 2.1 units lactate dehydrogenase, 1 mM phosphoenol pyruvate, 0.28 mM NADH, 30.1 nM MEK (SignalChem), and 1 mM ATP in assay buffer (100 mM Tris, pH 7.5, 15 mM MgCl2, 0.5 mM DTT, 0.1% octyl-glucoside, 0.002% (w/v) BSA, and 0.002% Triton X-100). Inhibition of A-Raf was measured by adding serial diluted test compound (final assay concentration of 1% DMSO). A decrease in absorption at 340 nm was monitored continuously for 6 h at 30° C. on a multi-mode microplate reader (BioTek). The reaction rate was calculated using the 4 to 5 h time frame. The reaction rate at each concentration of compound was converted to percent inhibition using controls (i.e., reaction with no test compound and reaction with a known inhibitor) and IC50 values were calculated by fitting a four-parameter sigmoidal curve to the data using Prism (GraphPad software).

Assay [2] concerns the target T2, B-Raf kinase (Homo sapiens, UniProt P15056).
T2 construct: GST (N); purchased Sigma
The assay can be described thus: Biochemical assay for B-Raf.1 (coupled pyruvate kinase/lactate dehydrogenase). The note with it: read-out: BRAF.1 IC50. As for the experimental part: Biochemical Assay for B-Raf.1
as §1, with “B-Raf” for “A-Raf”, “NO: 2)” for “NO. 1)”, “0.13” for “5.55”

Assay [3] has as its target T3, C-Raf kinase (Homo sapiens, UniProt P04049, Y340D/Y341D).
T3 construct: Y340D,; GST (N); purchased Sigma
Briefly: Biochemical assay for C-Raf.1 (coupled pyruvate kinase/lactate dehydrogenase). The note with it: read-out: CRAF.1 IC50. As for the experimental part: Biochemical Assay for C-Raf.1
as §1, with “C-Raf” for “A-Raf”, “NO: 3)” for “NO. 1)”, “0.43” for “5.55”

Assay [4] deals with T4, B-Raf (V600E) kinase (Homo sapiens, UniProt P15056, V600E).
T4 construct: B-Raf (V600E) residues 416-766 with a; GST (N); purchased SignalChem
The assay can be described thus: Biochemical assay for B-Raf (V600E).1 (coupled pyruvate kinase/lactate dehydrogenase). To be noted: read-out: BRAF V600E.1 IC50. The protocol: Biochemical Assay for B-Raf (V600E).1
Activity of B-Raf (V600E) (SEQ. ID NO: 4) kinase was determined spectroscopically using a coupled pyruvate kinase/lactate dehydrogenase assay that continuously monitors the ATP hydrolysis-dependent oxidation of NADH (e.g., Schindler et al., Science, 2000, 289, 1938-1942). Assays were conducted in 384-well plates (100 μL final volume) using 0.03 nM B-Raf (SignalChem), 1.5 units pyruvate kinase, 2.1 units lactate dehydrogenase, 1 mM phosphoenol pyruvate, 0.28 mM NADH, 30.1 nM MEK (SignalChem), and 1 mM ATP in assay buffer (100 mM Tris, pH 7.5, 15 mM MgCl2, 0.5 mM DTT, 0.1% octyl-glucoside, 0.002% (w/v) BSA, and 0.002% Triton X-100). Inhibition of B-Raf (V600E) was measured by adding serial diluted test compound (final assay concentration of 1% DMSO). A decrease in absorption at 340 nm was monitored continuously for 6 h at 30° C. on a multi-mode microplate reader (BioTek). The reaction rate was calculated using the 3 to 4 h time frame. The reaction rate at each concentration of compound was converted to percent inhibition using controls (i.e., reaction with no test compound and reaction with a known inhibitor) and IC50 values were calculated by fitting a four-parameter sigmoidal curve to the data using Prism (GraphPad software).

Assay [5] concerns A375 cells. The assay can be described thus: A375 cell proliferation assay (1), resazurin, 96-well. The note with it: Homo sapiens, A-375, inhibition of cell proliferation. It counts as cell-based. As for the experimental part: A375 Cell Proliferation Assay (1)
A375 cells (catalog (#CRL-1619) are obtained from the American Type Culture Collect (ATTC, Manassas, VA). Briefly, cells were grown in DMEM High Glucose supplemented with 10% characterized fetal bovine serum (Invitrogen, Carlsbad, CA) and 1% Penicillin/Streptomycin/L-Glutamine at 37° C., 5% CO2, and 95% humidity. Cells are expanded until reaching 70-95% confluency at which point they are sub-cultured or harvested for assay use. A serial dilution of test compound is dispensed into a 96-well black clear bottom plate in triplicate. Two thousand five hundred cells are added per well in 200 μL complete growth medium in the 96-well plate. Plates are incubated for 67-72 hours at 37° C., 5% CO2, and 95% humidity. At the end of the incubation, 40 μL of a 440 μM solution of resazurin (Sigma, St. Louis, MO) in PBS is added to each well of the plate and plates are incubated for an additional 5-6 hours at 37° C., 5% CO2, and 95% humidity. Plates are read on a Synergy2 or equivalent reader (Biotek, Winooski VT) using an excitation of 540 nm and an emission of 600 nm. Data is analyzed using Prism software (GraphPad, San Diego, CA) to calculate IC50 values.

T3 sequence (P04049 307-648 Y340D/Y341D): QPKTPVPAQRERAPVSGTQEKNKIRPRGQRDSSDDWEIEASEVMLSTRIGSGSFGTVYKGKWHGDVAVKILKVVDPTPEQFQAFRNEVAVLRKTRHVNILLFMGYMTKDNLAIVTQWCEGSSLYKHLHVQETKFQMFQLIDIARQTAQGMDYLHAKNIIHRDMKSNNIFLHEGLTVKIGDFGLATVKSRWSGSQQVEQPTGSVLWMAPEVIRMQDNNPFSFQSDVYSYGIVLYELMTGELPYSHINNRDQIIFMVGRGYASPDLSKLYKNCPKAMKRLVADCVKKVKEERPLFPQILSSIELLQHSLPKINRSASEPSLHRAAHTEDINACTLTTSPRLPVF
T1 sequence (P10398 with tags, fused parts or gaps Y301D/Y302D): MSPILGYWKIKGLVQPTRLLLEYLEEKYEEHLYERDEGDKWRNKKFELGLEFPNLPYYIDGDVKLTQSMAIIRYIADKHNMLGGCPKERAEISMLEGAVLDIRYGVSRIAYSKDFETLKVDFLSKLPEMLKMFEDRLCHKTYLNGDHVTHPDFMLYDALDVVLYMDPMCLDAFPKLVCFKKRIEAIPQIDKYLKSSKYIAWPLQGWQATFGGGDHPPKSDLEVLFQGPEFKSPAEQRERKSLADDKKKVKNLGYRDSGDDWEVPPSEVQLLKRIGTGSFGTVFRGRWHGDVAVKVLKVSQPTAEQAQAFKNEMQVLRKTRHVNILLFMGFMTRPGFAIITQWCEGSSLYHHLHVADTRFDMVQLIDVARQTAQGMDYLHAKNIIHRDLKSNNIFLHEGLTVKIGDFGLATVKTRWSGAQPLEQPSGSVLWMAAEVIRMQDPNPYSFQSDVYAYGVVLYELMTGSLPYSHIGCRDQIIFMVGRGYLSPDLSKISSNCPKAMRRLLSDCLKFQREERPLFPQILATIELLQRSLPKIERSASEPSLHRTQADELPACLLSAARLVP
T4 sequence (P15056 416-766 V600E): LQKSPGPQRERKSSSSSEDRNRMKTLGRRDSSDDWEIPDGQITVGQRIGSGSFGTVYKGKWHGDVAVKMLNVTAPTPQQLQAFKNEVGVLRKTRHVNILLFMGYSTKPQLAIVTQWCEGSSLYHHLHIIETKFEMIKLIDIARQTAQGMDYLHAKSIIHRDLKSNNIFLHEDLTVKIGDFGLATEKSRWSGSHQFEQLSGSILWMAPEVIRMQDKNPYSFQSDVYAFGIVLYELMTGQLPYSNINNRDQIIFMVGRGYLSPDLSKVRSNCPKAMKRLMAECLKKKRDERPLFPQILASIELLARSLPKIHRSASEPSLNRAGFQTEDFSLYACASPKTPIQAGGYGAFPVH
T2 sequence (P15056 416-766): as the sequence (P15056 416-766 V600E) above, with E185V counted along it

As for `CNc1cc(-c2cc(-c3cc(NC(=O)NCCC4(C)CC4)c(F)cc3C)cc(OCCO)n2)ccn1` [Example 27], the IC50 in assay [1] is > 1000 nM; in assay [2], ≤ 100 nM; in assay [3] it was ≤ 100 nM; in assay [4] it was ≤ 100 nM; in assay [5], 500 to 1000 nM.
Take `Cc1cc(F)c(NC(=O)Nc2cnn(C(C)(C)C)c2)cc1-c1cc(OCCN(C)C)nc(N2CCOCC2)c1` [Example 29]: the IC50 in assay [1] is > 1000 nM; in assay [2] it was 500 to 1000 nM; in assay [3], 100 to 500 nM; in assay [4] it was ≤ 100 nM; in assay [5], 1000 to 10000 nM.
For `Cc1cc(F)c(NC(=O)N2CCC(C)(C#N)C2)cc1-c1cc(OCCO)nc(-c2ccnc3[nH]ncc23)c1` (centres unmarked) [Example 95] the same measures were > 1000 nM, 500 to 1000 nM, 500 to 1000 nM, ≤ 100 nM and 1000 to 10000 nM.
For `CNc1cc(-c2cc(-c3cc(NC(=O)NCCC4(C(F)(F)F)CC4)c(F)cc3C)cc(OCCO)n2)ccn1` [Example 28], the half-maximal inhibitory concentration (IC50) was > 1000 nM in assay [1]; 100 to 500 nM in assay [2]; ≤ 100 nM in assay [3]; ≤ 100 nM in assay [4]; 100 to 500 nM in assay [5].
`CC(=O)Nc1cc(-c2cc(-c3cc(NC(=O)NCCC4(C)CC4)c(F)cc3C)ccn2)ccn1` [Example 2, N-(4-(4-fluoro-2-methyl-5-(3-(2-(1-methylcyclopropyl)ethyl)ureido)phenyl)-[2,4′-bipyridin]-2′-yl)acetamide]: the 50% inhibitory concentration (IC50) in assay [1] was > 1000 nM; in assay [2], 500 to 1000 nM; in assay [3] it was 100 to 500 nM; in assay [4], ≤ 100 nM; in assay [5], 1000 to 10000 nM.
For `Cc1ncc(NC(=O)NCCC(C)(C)C)cc1-c1cc(N2CCOCC2)nc(N2CCOCC2)c1` [Example 19], the IC50 was > 1000 nM in assay [1]; 500 to 1000 nM in assay [2]; 100 to 500 nM in assay [3]; ≤ 100 nM in assay [4]; 1000 to 10000 nM in assay [5].
Consider `Cc1ccc(NC(=O)NCCC(C)(C)C)cc1-c1cc(-c2cnn(C)c2)nc(N2CCOCC2)c1` [Example 6], for which the half-inhibitory concentration (IC50) was > 1000 nM in assay [1]; 100 to 500 nM in assay [2]; 100 to 500 nM in assay [3]; ≤ 100 nM in assay [4]; 1000 to 10000 nM in assay [5].
As to `COC1(CCNC(=O)Nc2cc(-c3ccnc(-c4ccnc(NC(=O)C5CC5)c4)c3)c(C)cc2F)CC1` [Example 116], the IC50 was 100 to 500 nM in assay [1]; ≤ 100 nM in assay [2]; ≤ 100 nM in assay [3]; ≤ 100 nM in assay [4]; 1000 to 10000 nM in assay [5].
In the case of `Cc1cc(F)c(NC(=O)NCCC(C)(C)F)cc1-c1cc(OCCO)nc(-c2ccncc2)c1` [Example 25], the IC50 was > 1000 nM in assay [1]; 100 to 500 nM in assay [2]; ≤ 100 nM in assay [3]; ≤ 100 nM in assay [4]; 1000 to 10000 nM in assay [5].
Consider `Cc1ccc(NC(=O)NCCC2(C)CC2)cc1-c1cc(-c2cnn(C)c2)nc(N2CCOCC2)c1` [Example 37], for which the IC50 was > 1000 nM in assay [1]; ≤ 100 nM in assay [2]; ≤ 100 nM in assay [3]; ≤ 100 nM in assay [4]; 1000 to 10000 nM in assay [5].
In the case of `Cc1ccc(NC(=O)NCCC(C)(C)C)cc1-c1cc(N2CCOCC2)nc(N2CC(C)(O)C2)n1` [Example 1, 1-(3,3-dimethylbutyl)-3-(3-(2-(3-hydroxy-3-methylazetidin-1-yl)-6-morpholinopyrimidin-4-yl)-4-methylphenyl)urea], the half-inhibitory concentration (IC50) was > 1000 nM in assay [1]; ≤ 100 nM in assay [2]; ≤ 100 nM in assay [3]; ≤ 100 nM in assay [4]; ≤ 100 nM in assay [5].
`Cc1ccc(NC(=O)NC2CCCCCC2)cc1-c1cc(OCCO)nc(N2CCOCC2)c1` [Example 13]: the IC50 is > 1000 nM in assay [1]; 100 to 500 nM in assay [2]; ≤ 100 nM in assay [3]; ≤ 100 nM in assay [4]; 1000 to 10000 nM in assay [5].
As to `Cc1cc(F)c(NC(=O)NCCC2(C(F)(F)F)CC2)cc1-c1cc(N2CCOCC2)nc(N2CC[C@H](N(C)C)C2)c1` [Example 26], the half-maximal inhibitory concentration (IC50) is > 1000 nM in assay [1]; 100 to 500 nM in assay [2]; 100 to 500 nM in assay [3]; ≤ 100 nM in assay [4]; 1000 to 10000 nM in assay [5].
